Assay: Quantification of garlic-derived metabolites in human urine after ingestion of 3 g raw garlic (SIDA, SAFE, HRGC-MS / HRGC-GC-MS)
Format: in vivo
Conditions: for metabolite concentration in urine / metabolite concentration in urine, creatinine-normalized: 3 g raw garlic
Method in brief: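 Healthy volunteers (n=18), kept off sulfur-rich foods for 2 days before and on the test day, ate 3 g of freshly cut raw garlic; urine was collected before and 0.5–24 h after intake and frozen at −80°C. Metabolites were quantified by SIDA with deuterated AMS, AMSO and AMSO2, after DCM extraction and SAFE distillation at 50°C, then GC-MS on DB-FFAP; creatinine was measured by Jaffé reaction.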

concentration in urine compared with human milk (3 g raw garlic in both studies, milk data ref 20): about twice as high
metabolite concentration in urine (U I, 0.5 h post (0.55 h)): 41.7 µg/kg
metabolite concentration in urine, creatinine-normalized (U I, 0.5 h post (0.55 h)): 5.8 µg/mmol creatinine
metabolite concentration in urine (U I, 1 h post (1.03 h)): 98.5 µg/kg
metabolite concentration in urine, creatinine-normalized (U I, 1 h post (1.03 h)): 106.3 µg/mmol creatinine
metabolite concentration in urine (U I, 2 h post (2.05 h)): 138.8 µg/kg
metabolite concentration in urine, creatinine-normalized (U I, 2 h post (2.05 h)): 68.4 µg/mmol creatinine
metabolite concentration in urine (U I, 4 h post (4.05 h)): 172.3 µg/kg
metabolite concentration in urine, creatinine-normalized (U I, 4 h post (4.05 h)): 19.6 µg/mmol creatinine
metabolite concentration in urine (U I, 6 h post (6.05 h)): 170.7 µg/kg
metabolite concentration in urine, creatinine-normalized (U I, 6 h post (6.05 h)): 18.6 µg/mmol creatinine
metabolite concentration in urine (U I, 8 h post (8.05 h)): 119.9 µg/kg
metabolite concentration in urine, creatinine-normalized (U I, 8 h post (8.05 h)): 16.3 µg/mmol creatinine
metabolite concentration in urine (U I, 24 h post (25.55 h)): 5.6 µg/kg
metabolite concentration in urine, creatinine-normalized (U I, 24 h post (25.55 h)): 0.9 µg/mmol creatinine
metabolite concentration in urine (U I, pre (-0.03 h)): < LOD^3
metabolite concentration in urine, creatinine-normalized (U I, pre (-0.03 h)): < LOD^3
metabolite concentration in urine (U II, 0.5 h post (0.50 h)): 32.4 µg/kg
metabolite concentration in urine, creatinine-normalized (U II, 0.5 h post (0.50 h)): 3.0 µg/mmol creatinine
metabolite concentration in urine (U II, 1 h post (1.00 h)): 68.0 µg/kg
metabolite concentration in urine, creatinine-normalized (U II, 1 h post (1.00 h)): 26.1 µg/mmol creatinine
metabolite concentration in urine (U II, 2 h post (2.00 h)): 62.1 µg/kg
metabolite concentration in urine, creatinine-normalized (U II, 2 h post (2.00 h)): 61.0 µg/mmol creatinine
metabolite concentration in urine (U II, 4 h post (4.00 h)): 75.1 µg/kg
metabolite concentration in urine, creatinine-normalized (U II, 4 h post (4.00 h)): 13.8 µg/mmol creatinine
metabolite concentration in urine (U II, 6 h post (6.00 h)): 61.7 µg/kg
metabolite concentration in urine, creatinine-normalized (U II, 6 h post (6.00 h)): 6.8 µg/mmol creatinine
metabolite concentration in urine (U II, 8 h post (8.00 h)): 41.3 µg/kg
metabolite concentration in urine, creatinine-normalized (U II, 8 h post (8.00 h)): 4.9 µg/mmol creatinine
metabolite concentration in urine (U II, 24 h post (24.12 h)): 1.9 µg/kg
metabolite concentration in urine, creatinine-normalized (U II, 24 h post (24.12 h)): 0.1 µg/mmol creatinine
metabolite concentration in urine (U II, pre (-0.13 h)): < LOD^3
metabolite concentration in urine, creatinine-normalized (U II, pre (-0.13 h)): < LOD^3
metabolite concentration in urine (U III, 0.5 h post (0.53 h)): 41.9 µg/kg
metabolite concentration in urine, creatinine-normalized (U III, 0.5 h post (0.53 h)): 24.9 µg/mmol creatinine
metabolite concentration in urine (U III, 1 h post (1.07 h)): 83.3 µg/kg
metabolite concentration in urine, creatinine-normalized (U III, 1 h post (1.07 h)): 117.5 µg/mmol creatinine
metabolite concentration in urine (U III, 2 h post (2.18 h)): 145.2 µg/kg
metabolite concentration in urine, creatinine-normalized (U III, 2 h post (2.18 h)): 89.7 µg/mmol creatinine
metabolite concentration in urine (U III, 4 h post (4.35 h)): 168.2 µg/kg
metabolite concentration in urine, creatinine-normalized (U III, 4 h post (4.35 h)): 63.4 µg/mmol creatinine
metabolite concentration in urine (U III, 6 h post (6.35 h)): 134.9 µg/kg
metabolite concentration in urine, creatinine-normalized (U III, 6 h post (6.35 h)): 26.1 µg/mmol creatinine
metabolite concentration in urine (U III, 8 h post (8.43 h)): 86.7 µg/kg
metabolite concentration in urine, creatinine-normalized (U III, 8 h post (8.43 h)): 15.3 µg/mmol creatinine
metabolite concentration in urine (U III, 24 h post (23.90 h)): 5.6 µg/kg
metabolite concentration in urine, creatinine-normalized (U III, 24 h post (23.90 h)): 0.9 µg/mmol creatinine
metabolite concentration in urine (U III, pre (-0.03 h)): 7.3 µg/kg
metabolite concentration in urine, creatinine-normalized (U III, pre (-0.03 h)): 1.3 µg/mmol creatinine
metabolite concentration in urine (U IV, 0.5 h post (0.55 h)): 31.0 µg/kg
metabolite concentration in urine, creatinine-normalized (U IV, 0.5 h post (0.55 h)): 6.6 µg/mmol creatinine
metabolite concentration in urine (U IV, 1 h post (1.05 h)): 63.2 µg/kg
metabolite concentration in urine, creatinine-normalized (U IV, 1 h post (1.05 h)): 52.7 µg/mmol creatinine
metabolite concentration in urine (U IV, 2 h post (2.12 h)): 82.8 µg/kg
metabolite concentration in urine, creatinine-normalized (U IV, 2 h post (2.12 h)): 52.5 µg/mmol creatinine
metabolite concentration in urine (U IV, 4 h post (4.05 h)): 108.4 µg/kg
metabolite concentration in urine, creatinine-normalized (U IV, 4 h post (4.05 h)): 22.3 µg/mmol creatinine
metabolite concentration in urine (U IV, 6 h post (6.08 h)): 96.7 µg/kg
metabolite concentration in urine, creatinine-normalized (U IV, 6 h post (6.08 h)): 6.9 µg/mmol creatinine
metabolite concentration in urine (U IV, 8 h post (8.05 h)): 73.4 µg/kg
metabolite concentration in urine, creatinine-normalized (U IV, 8 h post (8.05 h)): 15.4 µg/mmol creatinine
metabolite concentration in urine (U IV, 24 h post (24.03 h)): 6.8 µg/kg
metabolite concentration in urine, creatinine-normalized (U IV, 24 h post (24.03 h)): 0.7 µg/mmol creatinine
metabolite concentration in urine (U IV, pre (-0.05 h)): < LOD^3
metabolite concentration in urine, creatinine-normalized (U IV, pre (-0.05 h)): < LOD^3
metabolite concentration in urine (U IX, 0.5 h post (0.67 h)): 54.8 µg/kg
metabolite concentration in urine, creatinine-normalized (U IX, 0.5 h post (0.67 h)): 52.1 µg/mmol creatinine
metabolite concentration in urine (U IX, 1 h post (1.17 h)): 161.7 µg/kg
metabolite concentration in urine, creatinine-normalized (U IX, 1 h post (1.17 h)): 167.7 µg/mmol creatinine
metabolite concentration in urine (U IX, 2 h post (1.83 h)): 248.6 µg/kg
metabolite concentration in urine, creatinine-normalized (U IX, 2 h post (1.83 h)): 236.2 µg/mmol creatinine
metabolite concentration in urine (U IX, 4 h post (4.17 h)): 367.0 µg/kg
metabolite concentration in urine, creatinine-normalized (U IX, 4 h post (4.17 h)): 70.5 µg/mmol creatinine
metabolite concentration in urine (U IX, 6 h post (6.08 h)): 343.5 µg/kg
metabolite concentration in urine, creatinine-normalized (U IX, 6 h post (6.08 h)): 107.8 µg/mmol creatinine
metabolite concentration in urine (U IX, 8 h post (8.08 h)): 269.3 µg/kg
metabolite concentration in urine, creatinine-normalized (U IX, 8 h post (8.08 h)): 19.2 µg/mmol creatinine
metabolite concentration in urine (U IX, 24 h post (24.00 h)): 5.9 µg/kg
metabolite concentration in urine, creatinine-normalized (U IX, 24 h post (24.00 h)): 0.7 µg/mmol creatinine
metabolite concentration in urine (U IX, pre (-0.08 h)): < LOD^3
metabolite concentration in urine, creatinine-normalized (U IX, pre (-0.08 h)): < LOD^3
metabolite concentration in urine (U V, 0.5 h post (0.50 h)): 33.9 µg/kg
metabolite concentration in urine, creatinine-normalized (U V, 0.5 h post (0.50 h)): 49.6 µg/mmol creatinine
metabolite concentration in urine (U V, 1 h post (1.00 h)): 80.4 µg/kg
metabolite concentration in urine, creatinine-normalized (U V, 1 h post (1.00 h)): 96.0 µg/mmol creatinine
metabolite concentration in urine (U V, 2 h post (2.00 h)): 111.3 µg/kg
metabolite concentration in urine, creatinine-normalized (U V, 2 h post (2.00 h)): 132.8 µg/mmol creatinine
metabolite concentration in urine (U V, 4 h post (4.00 h)): 142.9 µg/kg
metabolite concentration in urine, creatinine-normalized (U V, 4 h post (4.00 h)): 46.1 µg/mmol creatinine
metabolite concentration in urine (U V, 6 h post (6.00 h)): 151.3 µg/kg
metabolite concentration in urine, creatinine-normalized (U V, 6 h post (6.00 h)): 30.1 µg/mmol creatinine
metabolite concentration in urine (U V, 8 h post (8.00 h)): 99.4 µg/kg
metabolite concentration in urine, creatinine-normalized (U V, 8 h post (8.00 h)): 45.8 µg/mmol creatinine
metabolite concentration in urine (U V, 24 h post (24.00 h)): 5.1 µg/kg
metabolite concentration in urine, creatinine-normalized (U V, 24 h post (24.00 h)): 0.9 µg/mmol creatinine
metabolite concentration in urine (U V, pre (-0.05 h)): < LOD^3
metabolite concentration in urine, creatinine-normalized (U V, pre (-0.05 h)): < LOD^3
metabolite concentration in urine (U VI, 0.5 h post (0.50 h)): 74.1 µg/kg
metabolite concentration in urine, creatinine-normalized (U VI, 0.5 h post (0.50 h)): 33.9 µg/mmol creatinine
metabolite concentration in urine (U VI, 1 h post (1.00 h)): 87.6 µg/kg
metabolite concentration in urine, creatinine-normalized (U VI, 1 h post (1.00 h)): 73.1 µg/mmol creatinine
metabolite concentration in urine (U VI, 2 h post (2.00 h)): 136.6 µg/kg
metabolite concentration in urine, creatinine-normalized (U VI, 2 h post (2.00 h)): 123.2 µg/mmol creatinine
metabolite concentration in urine (U VI, 4 h post (4.00 h)): 150.1 µg/kg
metabolite concentration in urine, creatinine-normalized (U VI, 4 h post (4.00 h)): 43.2 µg/mmol creatinine
metabolite concentration in urine (U VI, 6 h post (6.00 h)): 147.1 µg/kg
metabolite concentration in urine, creatinine-normalized (U VI, 6 h post (6.00 h)): 27.1 µg/mmol creatinine
metabolite concentration in urine (U VI, 8 h post (8.00 h)): 106.7 µg/kg
metabolite concentration in urine, creatinine-normalized (U VI, 8 h post (8.00 h)): 21.2 µg/mmol creatinine
metabolite concentration in urine (U VI, 24 h post (24.17 h)): 9.2 µg/kg
metabolite concentration in urine, creatinine-normalized (U VI, 24 h post (24.17 h)): 0.6 µg/mmol creatinine
metabolite concentration in urine (U VI, pre (-0.05 h)): < LOD^3
metabolite concentration in urine, creatinine-normalized (U VI, pre (-0.05 h)): < LOD^3
metabolite concentration in urine (U VII, 0.5 h post (0.50 h)): 44.1 µg/kg
metabolite concentration in urine, creatinine-normalized (U VII, 0.5 h post (0.50 h)): 41.3 µg/mmol creatinine
SMILES: C=CCS(C)(=O)=O [AMSO2, allyl methyl sulfone]

— PMC6499206, “Quantification of Volatile Metabolites Derived From Garlic (Allium sativum) in Human Urine” (Frontiers in Nutrition, 2019)
